# Source: ChEMBL document CHEMBL4049402, “Synthesis and cytotoxic activity of novel tetrahydrobenzodifuran-imidazolium salt derivatives” (Bioorg Med Chem Lett, 2017)
# Assays:
# SMMC-7721 [1] = assay: Cell cycle arrest in human SMMC7721 cells assessed as accumulation at G2/M phase at 4 uM after 24 hrs by propidium iodide staining based flow cytometry (reference value: 3.12 +/- 0.02%); type: functional
# SMMC-7721 [2] = assay: Induction of apoptosis in human SMMC7721 cells assessed as late apoptotic cells at 12 uM after 48 hrs by Annexin-V-FITC/propidium iodide staining based flow cytometry (reference value: 2.42%); type: functional
# SMMC-7721 [3] = assay: Cell cycle arrest in human SMMC7721 cells assessed as accumulation at S phase at 4 uM after 24 hrs by propidium iodide staining based flow cytometry (reference value: 20.18 +/- 0.02%); type: functional
# SMMC-7721 [4] = assay: Induction of apoptosis in human SMMC7721 cells assessed as necrotic cells at 16 uM after 48 hrs by Annexin-V-FITC/propidium iodide staining based flow cytometry (reference value: 3.18%); type: functional
# SMMC-7721 [5] = assay: Cell cycle arrest in human SMMC7721 cells assessed as accumulation at G0/G1 phase at 2 uM after 24 hrs by propidium iodide staining based flow cytometry (reference value: 70.12 +/- 0.18%); type: functional
# SMMC-7721 [6] = assay: Induction of apoptosis in human SMMC7721 cells assessed as early apoptotic cells at 12 uM after 48 hrs by Annexin-V-FITC/propidium iodide staining based flow cytometry (reference value: 1.82%); type: functional
# SMMC-7721 [7] = assay: Cytotoxicity against human SMMC7721 cells after 48 hrs by MTT assay; type: functional, cell-based; details: Homo sapiens, SMMC-7721, 48 h
# SMMC-7721 [8] = assay: Induction of apoptosis in human SMMC7721 cells assessed as live cells at 12 uM after 48 hrs by Annexin-V-FITC/propidium iodide staining based flow cytometry (reference value: 92.6%); type: functional
# SMMC-7721 [9] = assay: Induction of apoptosis in human SMMC7721 cells assessed as live cells at 16 uM after 48 hrs by Annexin-V-FITC/propidium iodide staining based flow cytometry (reference value: 92.6%); type: functional
# SMMC-7721 [10] = assay: Induction of apoptosis in human SMMC7721 cells assessed as necrotic cells at 12 uM after 48 hrs by Annexin-V-FITC/propidium iodide staining based flow cytometry (reference value: 3.18%); type: functional
# MCF7 [11] = assay: Cytotoxicity against human MCF7 cells after 48 hrs by MTT assay; type: functional, cell-based; details: Homo sapiens, MCF7, 48 h
# SMMC-7721 [12] = assay: Induction of apoptosis in human SMMC7721 cells assessed as live cells at 4 uM after 48 hrs by Annexin-V-FITC/propidium iodide staining based flow cytometry (reference value: 92.6%); type: functional
# HL-60 = assay: Cytotoxicity against human HL60 cells after 48 hrs by MTT assay; type: functional, cell-based; details: Homo sapiens, HL-60, 48 h
# SMMC-7721 [13] = assay: Induction of apoptosis in human SMMC7721 cells assessed as early apoptotic cells at 16 uM after 48 hrs by Annexin-V-FITC/propidium iodide staining based flow cytometry (reference value: 1.82%); type: functional
# SMMC-7721 [14] = assay: Induction of apoptosis in human SMMC7721 cells assessed as late apoptotic cells at 4 uM after 48 hrs by Annexin-V-FITC/propidium iodide staining based flow cytometry (reference value: 2.42%); type: functional
# SMMC-7721 [15] = assay: Cell cycle arrest in human SMMC7721 cells assessed as accumulation at G0/G1 phase at 4 uM after 24 hrs by propidium iodide staining based flow cytometry (reference value: 70.12 +/- 0.18%); type: functional
# A549 = assay: Cytotoxicity against human A549 cells after 48 hrs by MTT assay; type: functional, cell-based; details: Homo sapiens, A549, 48 h
# SMMC-7721 [16] = assay: Potency index, ratio of cisplatin IC50 to compound IC50 for human SMMC7721 cells; type: functional
# SMMC-7721 [17] = assay: Induction of apoptosis in human SMMC7721 cells assessed as late apoptotic cells at 8 uM after 48 hrs by Annexin-V-FITC/propidium iodide staining based flow cytometry (reference value: 2.42%); type: functional
# SMMC-7721 [18] = assay: Cell cycle arrest in human SMMC7721 cells assessed as accumulation at G2/M phase at 2 uM after 24 hrs by propidium iodide staining based flow cytometry (reference value: 3.12 +/- 0.02%); type: functional
# SMMC-7721 [19] = assay: Induction of apoptosis in human SMMC7721 cells assessed as necrotic cells at 8 uM after 48 hrs by Annexin-V-FITC/propidium iodide staining based flow cytometry (reference value: 3.18%); type: functional
# SMMC-7721 [20] = assay: Induction of apoptosis in human SMMC7721 cells assessed as early apoptotic cells at 8 uM after 48 hrs by Annexin-V-FITC/propidium iodide staining based flow cytometry (reference value: 1.82%); type: functional
# SMMC-7721 [21] = assay: Induction of apoptosis in human SMMC7721 cells assessed as live cells at 8 uM after 48 hrs by Annexin-V-FITC/propidium iodide staining based flow cytometry (reference value: 92.6%); type: functional
# MCF7 [22] = assay: Potency index, ratio of cisplatin IC50 to compound IC50 for human MCF7 cells; type: functional
# SMMC-7721 [23] = assay: Cell cycle arrest in human SMMC7721 cells assessed as accumulation at S phase at 2 uM after 24 hrs by propidium iodide staining based flow cytometry (reference value: 20.18 +/- 0.02%); type: functional
# SW480 = assay: Cytotoxicity against human SW480 cells after 48 hrs by MTT assay; type: functional, cell-based; details: Homo sapiens, SW480, 48 h
# SMMC-7721 [24] = assay: Induction of apoptosis in human SMMC7721 cells assessed as necrotic cells at 4 uM after 48 hrs by Annexin-V-FITC/propidium iodide staining based flow cytometry (reference value: 3.18%); type: functional
# SMMC-7721 [25] = assay: Induction of apoptosis in human SMMC7721 cells assessed as late apoptotic cells at 16 uM after 48 hrs by Annexin-V-FITC/propidium iodide staining based flow cytometry (reference value: 2.42%); type: functional
# SMMC-7721 [26] = assay: Cell cycle arrest in human SMMC7721 cells assessed as increase in G1 population after 24 hrs by propidium iodide staining based flow cytometry; type: functional
# SMMC-7721 [27] = assay: Induction of apoptosis in human SMMC7721 cells assessed as early apoptotic cells at 4 uM after 48 hrs by Annexin-V-FITC/propidium iodide staining based flow cytometry (reference value: 1.82%); type: functional
compound,measurement,setting,value
Cc1n(Cc2c3c(cc4c2OCC4)OCC3)c2ccccc2[n+]1CC(=O)c1ccc2ccccc2c1.[Br-],Activity,SMMC-7721 [1],0.94%
same,Activity,SMMC-7721 [2],37.3%
same,Activity,SMMC-7721 [3],8.75%
same,Activity,SMMC-7721 [4],6.48%
same,Activity,SMMC-7721 [5],70.58%
same,Activity,SMMC-7721 [6],0.98%
same,IC50,SMMC-7721 [7],4.52 µM
same,Activity,SMMC-7721 [8],30.7%
same,Activity,SMMC-7721 [9],0.69%
same,Activity,SMMC-7721 [10],31%
same,IC50,MCF7 [11],1.65 µM
same,Activity,SMMC-7721 [12],91.9%
same,IC50,HL-60,0.8 µM
same,Activity,SMMC-7721 [13],0.43%
same,Activity,SMMC-7721 [14],3.18%
same,Activity,SMMC-7721 [15],79.57%
same,IC50,A549,6.1 µM
same,Ratio IC50,SMMC-7721 [16],2.7
same,Activity,SMMC-7721 [17],4.64%
same,Activity,SMMC-7721 [18],4.37%
same,Activity,SMMC-7721 [19],7.42%
same,Activity,SMMC-7721 [20],0.86%
same,Activity,SMMC-7721 [21],87.1%
same,Ratio IC50,MCF7 [22],8.4
same,Activity,SMMC-7721 [23],14.85%
same,IC50,SW480,4.49 µM
same,Activity,SMMC-7721 [24],3.44%
same,Activity,SMMC-7721 [25],92.4%
same,Activity,SMMC-7721 [26],Dose-dependent effect
same,Activity,SMMC-7721 [27],1.43%
